Assay results from patent publication US8846675B2, “N-linked heterocyclic receptor agonists for the treatment of diabetes and metabolic disorders” (Cymabay Therapeutics, Inc., priority 2007, dated 2014).

Molecular target: T1, IC-GPCR2 (Homo sapiens, UniProt Q8TDV5)
T1 construct: expressed in transfected cells
T1 sequence (Q8TDV5 1-335 S309L): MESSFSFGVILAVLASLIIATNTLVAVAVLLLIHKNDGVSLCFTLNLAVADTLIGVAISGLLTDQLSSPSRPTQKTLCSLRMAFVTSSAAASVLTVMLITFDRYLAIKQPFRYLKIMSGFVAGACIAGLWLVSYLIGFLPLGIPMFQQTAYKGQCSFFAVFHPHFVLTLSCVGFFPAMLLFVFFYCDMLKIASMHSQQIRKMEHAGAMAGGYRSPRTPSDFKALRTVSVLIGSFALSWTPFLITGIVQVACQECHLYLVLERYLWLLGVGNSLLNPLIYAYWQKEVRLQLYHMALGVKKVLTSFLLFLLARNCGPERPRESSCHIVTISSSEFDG
Assay: Stimulation of cAMP in CHO cell line stably expressing IC-GPCR2 (HTRF cAMP dynamic kit)
Format: cell-based
Details: 3 μM compound, relative to maximal activity of 5-Ethyl-2-{4-[4-(4-tetrazol-1-yl-phenoxymethyl)-thiazol-2-yl]-piperidin-1-yl}-pyrimidine (=100%), IC-GPCR2 stably expressing CHO cells, 30 minutes
Experimental: This assay was developed using a stable cell line expressing IC-GPCR-2, generated as follows. IC-GPCR2 (Seq. ID No. 1) was cloned into Gateway pDEST 40vector (Invitrogen), using the Gateway cloning system (invitrogen) according to the manufacturers instructions. A stable cell line was generated by transfecting a 10 cm plate of CHO cells (source) with 8 ug of this construct using Transit-CHO transfection kit (Mirus). CHO cells were plated the day prior to transfection at a density of 3,000,000 cells/plate. Clones were selected using the antibiotic G418 at 500 ug/ml. 23 clones were picked and assayed for the expression of the receptor by measuring changes in intracellular cAMP levels in response to an IC-GPCR2 agonist (Arena 51).
To measure cAMP activity in response to IC-GPCR2 agonist, the clones were plated in 96 well plates at 17500 cells per well. On the day after plating, cells were incubated with the IC-CPCR2 agonist at […] for 30 minutes in Ham's F12 Media (Gibco) with 0.04% DMSO. cAMP was measured using the cAMP dynamic kit from C is Bio (Bedford, Mass.) according to the manufacturers instructions. Briefly, cells were lysed, and cAMP levels determined by competitive immunoassay using D2 labeled cAMP, and europium cryptate tagged anti cAMP antibody. When in close proximity, the D2 and europium cryptate undergo fluorescence resonance energy transfer (FRET), which is measured as a fluorescence ratio (665 nm/620 nm). Unlabelled cAMP in the cell lysatc competed with the D2 labeled cAMP for the europium crypate labeled antibody. The resulting decrease in FRET signal corresponded to intracellular cAMP levels. Fluorescence was read on a BMG Labtech PHERAstar, software version 1.50.
The clone with the greatest response to IC-GPCR2 agonist was selected for the screening assay.
Compounds were dissolved in 100% DMSO to a concentration of […] to provide stock solutions. To determine activity against IC-GPCR2, compounds were incubated with IC-GPCR2 stably expressing cells (described above), at 6-8 concentrations ranging from 0.00003 to 10 micromolar, in 96 well plates, in 50 ul of Hams F12 media for 30 minutes. Cells were plated at 17500 cells per well 1 day before running the assay. All compounds were also screened against the parental CHO cells. cAMP was measured using the cAMP dynamic kit from Cis Bio (Bedford, Mass.), according to the manufacturer's instructions. Briefly, cells were lysed and cAMP levels determined by competitive immunoassay using D2 labeled cAMP, and europium cryptate tagged anti cAMP antibody. When in close proximity, the D2 and europium cryptate undergo fluorescence resonance energy transfer (FRET), which is measured as a fluorescence ratio (665 nm/620 nm). Unlabelled cAMP in the cell lysate competed with the D2 labeled cAMP for the europium crypate labeled antibody. The resulting decrease in FRET signal corresponded to intracellular cAMP levels
To determine percent activity for a tested compound, the FRET signal value obtained at a particular concentration are compared to the Maximal FRET signal value obtained for 5-Ethyl-2-{4-[4-(4-tetrazol-1-yl-phenoxymethyl)-thiazol-2-yl]-piperidin-1-yl}-pyrimidine. The maximal activity of 5-Ethyl-2-{4-[4-(4-tetrazol-1-yl-phenoxymethyl)-thiazol-2-yl]-piperidin-1-yl}-pyrimidine is designated as 100% activity. Typically, the concentration of 5-Ethyl-2-{4-[4-(4-tetrazol-1-yl-phenoxymethyl)-thiazol-2-yl]-piperidin-1-yl}-pyrimidine in the assay was approximately 0.1 μM. The synthesis of 5-Ethyl-2-{4-[4-(4-tetrazol-1-yl-phenoxymethyl)-thiazol-2-yl]-piperidin-1-yl}-pyrimidine is disclosed in co-owned pending U.S. patent application Ser. No. 11/964,461, herein incorporated by reference. Activities of compounds that were tested are shown in Table 1 below and are expressed as % activity at 3 μM compound compared to the maximal activity of 5-Ethyl-2-{4-[4-(4-tetrazol-1-yl-phenoxymethyl)-thiazol-2-yl]-piperidin-1-yl}-pyrimidine at 3 μM.

| SMILES | % activity at 3 μM [%] | % activity at 3 μM (3 µM) [%] |
| --- | --- | --- |
| CCOC(=O)CCCc1cnc(N2CCC(n3ncc(COc4ccc(-n5cnnn5)nc4)n3)CC2)nc1 [Example 58, Ethyl 4-(2-(4-(4-((6-(1H-tetrazol-1-yl)pyridin-3-yloxy)methyl)-2H-1,2,3-triazol-2-yl)piperidin-1-yl)pyrimidin-5-yl)butanoate] | 79.55 | – |
| CCOC(=O)c1cnc(N2CCC(n3ncc(COc4ccc(-n5cnnn5)nc4)n3)CC2)nc1 [Example 60] | 27.86 | – |
| O=C(c1cnc(N2CCC(n3ncc(COc4ccc(-n5cnnn5)nc4)n3)CC2)nc1)N1CCOCC1 [Example 61] | 43.59 | – |
| O=C(c1ncc(Br)cn1)N1CCC(n2ncc(COc3ccc(-n4cnnn4)nc3)n2)CC1 [Example 62, (4-(4-((6-(1H-tetrazol-1-yl)pyridin-3-yloxy)methyl)-2H-1,2,3-triazol-2-yl)piperidin-1-yl)(5-bromopyrimidin-2-yl)methanone] | 32.06 | – |
| Cc1nc(-n2cncn2)ccc1OCc1cnn(C2CCN(c3ncc(C(F)(F)F)cn3)CC2)n1 [Example 64, 2-(4-(4-((2-Methyl-6-(1H-1,2,4-triazol-1-yl)pyridin-3-yloxy)methyl)-2H-1,2,3-triazol-2-yl)piperidin-1-yl)-5-(trifluoromethyl)pyrimidine] | 66.18 | – |
| CCc1cnc(N2CCC(n3ncc(COc4ccc(-n5cncn5)nc4C)n3)CC2)nc1 [Example 65, 5-Ethyl-2-(4-(4-((2-methyl-6-(1H-1,2,4-triazol-1-yl)pyridin-3-yloxy)methyl)-2H-1,2,3-triazol-2-yl)piperidin-1-yl)pyrimidine] | 70.03 | – |
| CCc1cnc(N2CCC(n3cc(COc4ccc(-n5cnnn5)cc4F)c(C(F)(F)F)n3)CC2)nc1 [Example 66, 5-Ethyl-2-(4-(4-((2-fluoro-4-(1H-tetrazol-1-yl)phenoxy)methyl)-3-(trifluoromethyl)-1H-pyrazol-1-yl)piperidin-1-yl)pyrimidine] | 80.00 | – |
| CCc1cnc(N2CCC(n3cc(COc4ccc(S(C)(=O)=O)cc4F)c(C(F)(F)F)n3)CC2)nc1 [Example 67, 5-Ethyl-2-(4-(4-((2-fluoro-4-(methylsulfonyl)phenoxy)methyl)-3-(trifluoromethyl)-1H-pyrazol-1-yl)piperidin-1-yl)pyrimidine] | 57.87 | – |
| CCc1cnc(N2CCC(n3ncc(COc4ccc(-n5cnnn5)cc4F)c3C(F)(F)F)CC2)nc1 [Example 68, 5-Ethyl-2-(4-(4-((2-fluoro-4-(1H-tetrazol-1-yl)phenoxy)methyl)-5-(trifluoromethyl)-1H-pyrazol-1-yl)piperidin-1-yl)pyrimidine] | 74.11 | – |
| CC1CC(n2ncc(COc3ccc(-n4cnnn4)cc3F)n2)CCN1c1ncc(Cl)cn1 (stereo not drawn) [Example 69, 5-Chloro-2-(4-(4-((2-fluoro-4-(1H-tetrazol-1-yl)phenoxy)methyl)-2H-1,2,3-triazol-2-yl)-2-methylpiperidin-1-yl)pyrimidine] | 55.22 | – |
| CC1CC(n2ncc(COc3ccc(-n4cnnn4)cc3F)n2)CCN1c1ncc(C(F)(F)F)cn1 (stereo not drawn) [Example 70, 2-(4-(4-((2-Fluoro-4-(1H-tetrazol-1-yl)phenoxy)methyl)-2H-1,2,3-triazol-2-yl)-2-methylpiperidin-1-yl)-5-(trifluoromethyl)pyrimidine] | 66.77 | – |
| FC(F)(F)c1cnc(N2C3CCC2CC(n2ncc(COc4ccc(-n5cnnn5)nc4)n2)C3)nc1 (stereo not drawn) [Example 71, exo-3-(4-((6-(1H-Tetrazol-1-yl)pyridin-3-yloxy)methyl)-2H-1,2,3-triazol-2-yl)-8-(5-(trifluoromethyl)pyrimidin-2-yl)-8-azabicyclo[3.2.1]octane] | 70.78 | – |
| CC(C)(C)OC(=O)N1C2CCC1CC(n1ncc(COc3ccc(-n4cnnn4)nc3)n1)C2 (stereo not drawn) [Example 72, endo-tert-Butyl 3-(4-((6-(1H-tetrazol-1-yl)pyridin-3-yloxy)methyl)-2H-1,2,3-triazol-2-yl)-8-azabicyclo[3.2.1]octane-8-carboxylate] | – | 60.55 |
| CC(C)(C)OC(=O)N1C2CCC1CC(n1ncc(COc3ccc(-n4cnnn4)nc3)n1)C2 (stereo not drawn) [Example 73, exo-tert-Butyl 3-(4-((6-(1H-tetrazol-1-yl)pyridin-3-yloxy)methyl)-2H-1,2,3-triazol-2-yl)-8-azabicyclo[3.2.1]octane-8-carboxylate] | – | 84.07 |
| Fc1cnc(N2C3CCC2CC(n2ncc(COc4ccc(-n5cnnn5)nc4)n2)C3)nc1 (stereo not drawn) [Example 74, endo-3-(4-((6-(1H-tetrazol-1-yl)pyridin-3-yloxy)methyl)-2H-1,2,3-triazol-2-yl)-8-(5-fluoropyrimidin-2-yl)-8-azabicyclo[3.2.1]octane] | – | 61.88 |
| Fc1cnc(N2C3CCC2CC(n2ncc(COc4ccc(-n5cnnn5)nc4)n2)C3)nc1 (stereo not drawn) [Example 75, exo-3-(4-((6-(1H-Tetrazol-1-yl)pyridin-3-yloxy)methyl)-2H-1,2,3-triazol-2-yl)-8-(5-fluoropyrimidin-2-yl)-8-azabicyclo[3.2.1]octane] | – | 47.94 |
| C=CCOC(=O)N1CCC(n2ncc(COc3ccc(-n4cnnn4)cc3F)n2)CC1 [Example 76, Allyl 4-(4-((2-fluoro-4-(1H-tetrazol-1-yl)phenoxy)methyl)-2H-1,2,3-triazol-2-yl)piperidine-1-carboxylate] | 56.39 | – |
| C=CCOC(=O)N1CCC(n2ncc(COc3ccc(-n4cnnn4)nc3)n2)CC1 [Example 77, Allyl 4-(4-((6-(1H-tetrazol-1-yl)pyridin-3-yloxy)methyl)-2H-1,2,3-triazol-2-yl)piperidine-1-carboxylate] | 69.86 | – |
| CCCCCc1cnc(N2CCC(n3ncc(COc4ccc(-n5cnnn5)nc4)n3)CC2)nc1 [Example 78, 2-(4-(4-((6-(1H-tetrazol-1-yl)pyridin-3-yloxy)methyl)-2H-1,2,3-triazol-2-yl)piperidin-1-yl)-5-pentylpyrimidine] | 57.13 | – |
| COc1ccc(-c2cnc(N3CCC(n4ncc(COc5ccc(-n6cnnn6)nc5)n4)CC3)nc2)cc1 [Example 80, 2-(4-(4-((6-(1H-tetrazol-1-yl)pyridin-3-yloxy)methyl)-2H-1,2,3-triazol-2-yl)piperidin-1-yl)-5-(4-methoxyphenyl)pyrimidine] | 77.53 | – |
| CCOC(=O)c1cnc(N2CCC(n3ncc(COc4ccc(-n5cnnn5)nc4)n3)CC2)s1 [Example 81, Ethyl 2-(4-(4-((6-(1H-tetrazol-1-yl)pyridin-3-yloxy)methyl)-2H-1,2,3-triazol-2-yl)piperidin-1-yl)thiazole-5-carboxylate] | 32.98 | – |
